# Measurements reported in patent US7169567B1, “Screening assay utilizing the PTH receptor” (The General Hospital Corporation, priority 1998, dated 2007).
# Legend:
# [1] = target: T1, intact rat PTH-1 receptor (rWT-HA) (Rattus norvegicus, UniProt P25961); test: cAMP inhibition assay in COS-7 cells expressing rWT-HA; type: cell-based; conditions: antagonist 10 mM
# T1 construct: expressed in transfected cells; host or cells: COS-7, transient (DEAE-dextran), pCDNA-1 based plasmid
# T1 sequence (P25961 23-591 E93Y/N94P/K95Y/T99D/G100Y/S101A limits assumed): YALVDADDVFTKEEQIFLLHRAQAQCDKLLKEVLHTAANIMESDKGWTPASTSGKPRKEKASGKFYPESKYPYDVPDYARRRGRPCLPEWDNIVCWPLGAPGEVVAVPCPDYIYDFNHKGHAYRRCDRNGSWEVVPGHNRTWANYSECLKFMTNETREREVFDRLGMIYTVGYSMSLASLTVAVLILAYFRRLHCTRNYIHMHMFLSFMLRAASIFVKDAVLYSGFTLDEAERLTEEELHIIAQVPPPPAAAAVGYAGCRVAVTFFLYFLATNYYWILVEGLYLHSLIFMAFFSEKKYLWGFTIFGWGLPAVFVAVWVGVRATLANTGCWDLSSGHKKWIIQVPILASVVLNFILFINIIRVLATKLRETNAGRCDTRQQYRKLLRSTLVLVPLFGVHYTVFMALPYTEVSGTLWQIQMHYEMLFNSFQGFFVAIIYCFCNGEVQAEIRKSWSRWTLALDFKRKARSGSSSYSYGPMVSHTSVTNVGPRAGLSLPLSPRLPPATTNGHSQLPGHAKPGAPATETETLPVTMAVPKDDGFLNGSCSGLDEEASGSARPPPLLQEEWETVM
# Procedure: (§1) FIG. 7. Antagonist Properties of PTHrP(7–34) with PTH(1–14). COS-7 cells transfected with rWT-HA (A) or rΔNt (B) were treated with the antagonist [Leu11,D-Trp12]hPTHrP(7–34)NH2 (or buffer alone), for 5 min at 22EC, followed by 10 ml of either rPTH(1–34) or rPTH(1–14) agonist peptide. Incubations were continued for 30 min at 21° C. and the resulting cAMP levels were measured by RIA, as described in Experimental Procedures. The final concentration of antagonist peptide present during the incubation was 10 mM. Shown are data from a single experiment performed in triplicate. A repeat of the same experiment yielded equivalent results.
# For cAMP inhibition assays, transfected COS-7 cells were rinsed once with 500 ml of binding buffer, and 200 ml of IBMX buffer and 100 ml of binding buffer or binding buffer containing the antagonist [Leu11,D-Trp12]hPTHrP(7–34) NH2 (10 mM) were added. After a 5 minute incubation at room temperature, 10 ml of binding buffer containing PTH(1–14) or PTH(1–34) (agonist peptide) was added, and the incubation was continued for an additional 30 minutes. The cells were then lysed and intracellular cAMP levels were measured as described above. […]
# [2] = target: T2, truncated rat PTH-1 receptor (rΔNt) (Rattus norvegicus, UniProt P25961, E586G); test: cAMP inhibition assay in COS-7 cells expressing rΔNt; type: cell-based
# T2 construct: contains an open reading frame encoding a protein of about 435 amino acid residues; expressed in transfected cells; host or cells: COS-7, transient (DEAE-dextran), pCDNA-1 based plasmid
# T2 sequence (P25961 with tags, fused parts or gaps E586G): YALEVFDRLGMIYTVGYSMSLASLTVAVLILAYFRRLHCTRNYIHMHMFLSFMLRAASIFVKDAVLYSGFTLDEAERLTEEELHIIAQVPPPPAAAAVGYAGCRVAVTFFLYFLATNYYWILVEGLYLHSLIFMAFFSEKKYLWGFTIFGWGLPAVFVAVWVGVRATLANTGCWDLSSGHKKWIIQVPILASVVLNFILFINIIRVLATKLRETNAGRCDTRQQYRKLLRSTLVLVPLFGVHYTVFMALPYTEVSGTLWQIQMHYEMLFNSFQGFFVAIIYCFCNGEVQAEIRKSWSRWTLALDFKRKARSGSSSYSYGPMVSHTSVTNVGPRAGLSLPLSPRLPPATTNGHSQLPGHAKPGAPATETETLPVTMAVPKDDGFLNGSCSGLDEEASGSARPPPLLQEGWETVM
# Procedure: as §1
# For cAMP inhibition assays, transfected COS-7 cells were rinsed once with 500 ml of binding buffer, and 200 ml of IBMX buffer and 100 ml of binding buffer or binding buffer containing the antagonist [Leu11,D-Trp12]hPTHrP(7–34) NH2 (10 mM) were added. After a 5 minute incubation at room temperature, 10 ml of binding buffer containing PTH(1–14) or PTH(1–34) (agonist peptide) was added, and the incubation was continued for an additional 30 minutes. The cells were then lysed and intracellular cAMP levels were measured as described above.
# In order to determine whether [Leu11,D-Trp12]hPTHrP(7–34)NH2, a potent competitive antagonist of PTH(1–34) action (Nutt, R. F., et al., Endocrinology 127:491–493 (1990)), could block the ability of PTH(1–14) to stimulate cAMP formation in COS-7 cells expressing either rWT-HA or rΔNt (FIG. 6). With rWT-HA the inhibitor peptide reduced the efficacy of both PTH(1–14) and PTH(1–34) by as much as 70% as compared to the responses elicited by these agonists in the absence of inhibitor (FIG. 6A).
# [3] = cells expressing rΔNt, antagonist 10 mM
substance,measurement,setting,value
"[Leu^11,D-Trp^12]hPTHrP(7–34)NH2 [[Leu11,D-Trp12]hPTHrP(7–34)NH2]",reduction of efficacy of PTH(1–14) (cAMP) compared to response in absence of inhibitor,[1]; agonist PTH(1–14),≤ 70%
same,reduction of efficacy of PTH(1–34) (cAMP) compared to response in absence of inhibitor,[1]; agonist PTH(1–34),≤ 70%
same,effect on the ability of PTH(1–14) to stimulate cAMP production,[2]; [3],little or no effect
same,effect on the ability of PTH(1–34) to stimulate cAMP production,[2]; [3],little or no effect
same,function as an antagonist with rΔNt,[2]; rΔNt,inability
